Results reported in ChEMBL document CHEMBL1151909, “Mechanism of action of N-phenyl-N'-(2-chloroethyl)ureas in the colchicine-binding site at the interface between alpha- and beta-tubulin” (2009).

Tested on: HT-29
Assay: Antiproliferative activity against human HT-29 cells after 48 hrs by SRB assay
Type: functional
Details: HT-29, 48 h

Row | GI50 | Compound
1 | 620 nM | CCCCCc1cccc(NC(=O)NCCCl)c1
2 | 840 nM | COCCCCCc1cccc(NC(=O)NCCCl)c1
3 | 9600 nM | COc1ccc(CCc2cccc(NC(=O)NCCCl)c2)cc1O
4 | 2400 nM | COc1ccc(/C=C\c2ccc(NC(=O)NCCCl)cc2)cc1O
5 | 600 nM | CC(=O)CCCCc1cccc(NC(=O)NCCCl)c1
6 | 160 nM | O=C(NCCCl)Nc1cccc(CCCCCO)c1
7 | 300 nM | O=C(NCCCl)Nc1cccc(CCCCCCO)c1
8 | 710 nM | O=C(NCCCl)Nc1cccc(CCCCO)c1
